Measurements from patent publication US20140303144A1, “COMPOUNDS AND METHODS OF TREATING HYPERTENSION” (Medivation Technologies, Inc., priority 2011, published 2014).
Each block holds one molecule with its values, some of them ahead of it.

Experiments:
SH-SY5Y cells = experiment: Cell viability assay (MTS reduction) against 4-Br-A23187 challenge; assay type: cell-based; conditions: Homo sapiens, SH-SY5Y, compound 10 nM, 4-Br-A23187 (2 μM) for 24 h, Control = 100, Vehicle = 0, read-out: Relative Cytoprotective capacity
Description: SH-SY5Y cells cultured in DMEM/F12 media supplemented with 10% FBS were seeded in 96-well microplates at 150,000 cells/cm^2. After 24 h, cells were depleted from FBS and kept in culture for 24 h before the experiment. A stock solution was prepared by dissolving the calcium ionophore 4-Br-A23187 (Calbiochem Cat. N^o 100107) in DMSO at 25 mM. Cells were then treated with 4-Br-A23187 (2 μM), hydrogen peroxide (300 μM) or the mitochondrial toxin rotenone (25 μM) in the presence of vehicle or Compound of the Invention for 24 h. Cell death was determined by measurements of LDH release according to the Cytotoxicity Detection KitPlus (Roche, Mannheim, Germany). Cell viability was determined by measuring the capacity of cells to metabolize MTS tetrazolium (MTS) according to the Cytotoxicity Detection KitPlus (Roche, Mannheim, Germany) and MTS reduction was assessed by the CellTiter 96® AQueous One Solution Cell Proliferation assay (Promega Corporation, Madison, Wis., USA). Compounds were screened at 10 nM, using DMSO as vehicle. Assay results for the experiments with Br-A23187 were presented as the MTS reduction capacity (cell viability) of untreated cells (control), 4-Br-A23187-treated cells (vehicle), and co-incubation of Br-A23187 with Compounds of the Invention treated cells and using […] (FCCP) at 10 μM for 30 min as a control. This assay assesses the ability of the test compounds to protect against cell death that was mediated by mitochondrial dysfunction. In the assay, the calcium ionophore 4-Br-A23187 was used to challenge the cells, causing calcium levels to rise in mitochondria, which leads to depolarization and cell death. Test compounds were assessed for their ability to prevent cell death in response to challenge with 4-Br-A23187.

[1] = target: T1, human recombinant adrenergic α1D receptor (Homo sapiens, UniProt P25100); experiment: Adrenergic α1D radioligand binding assay ([3H]Prazosin); conditions: for inhibition at 1 µM: 1 μM compound
T1 construct: expressed in transfected cells; host or cells: HEK-293 cells
T1 sequence (P25100 1-572): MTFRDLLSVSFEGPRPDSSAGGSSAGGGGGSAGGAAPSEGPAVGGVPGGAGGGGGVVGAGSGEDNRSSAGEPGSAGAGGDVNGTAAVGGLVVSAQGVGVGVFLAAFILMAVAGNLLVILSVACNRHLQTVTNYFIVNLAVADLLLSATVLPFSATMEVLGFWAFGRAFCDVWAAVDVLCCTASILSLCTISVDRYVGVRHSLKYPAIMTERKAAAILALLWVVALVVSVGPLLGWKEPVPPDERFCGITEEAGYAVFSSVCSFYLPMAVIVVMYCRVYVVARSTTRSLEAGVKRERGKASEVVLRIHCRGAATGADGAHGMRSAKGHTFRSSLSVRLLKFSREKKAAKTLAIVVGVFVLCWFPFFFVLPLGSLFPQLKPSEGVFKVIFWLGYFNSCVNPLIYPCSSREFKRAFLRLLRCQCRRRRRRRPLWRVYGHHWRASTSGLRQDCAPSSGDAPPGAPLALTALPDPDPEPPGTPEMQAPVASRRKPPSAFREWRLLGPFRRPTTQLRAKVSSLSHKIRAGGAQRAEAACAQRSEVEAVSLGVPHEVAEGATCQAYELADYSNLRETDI
Description: To evaluate in radioligand binding assays the activity of compounds of the invention, human recombinant adrenergic α1D receptor expressed in human embryonic kidney (HEK-293) cells (Kenny, B. et al, Br. J. Pharmacol. 115(6):981, 1995) in a 50 mM Tris-HCl buffer, pH 7.4, was used. Compounds were incubated with 0.6 nM [3H]Prazosin for 60 min at 25° C. Non-specific binding was estimated in the presence of 10 μM phentolamine. Receptor proteins were filtered and washed, the filters were then counted to determine [3H]Prazosin specifically bound. Compounds were screened at 1 μM or lower, using 1% DMSO as vehicle. Biochemical assay results are presented as the percent inhibition of specific binding in Tables B1A-B1D.

[2] = target: T2, human recombinant adrenergic α2A receptor (Homo sapiens, UniProt P08913); experiment: Adrenergic α2A radioligand binding assay ([3H]MK-912); conditions: for inhibition at 1 µM: 1 μM compound, read-out: Percentage inhibition of ligand binding, Adrenergic α2A; for Percentage inhibition of ligand binding, Adrenergic α2A: 0.1 μM compound, 0.1 µM
T2 construct: expressed in transfected cells; host or cells: insect Sf9 cells
T2 sequence (P08913 1-465): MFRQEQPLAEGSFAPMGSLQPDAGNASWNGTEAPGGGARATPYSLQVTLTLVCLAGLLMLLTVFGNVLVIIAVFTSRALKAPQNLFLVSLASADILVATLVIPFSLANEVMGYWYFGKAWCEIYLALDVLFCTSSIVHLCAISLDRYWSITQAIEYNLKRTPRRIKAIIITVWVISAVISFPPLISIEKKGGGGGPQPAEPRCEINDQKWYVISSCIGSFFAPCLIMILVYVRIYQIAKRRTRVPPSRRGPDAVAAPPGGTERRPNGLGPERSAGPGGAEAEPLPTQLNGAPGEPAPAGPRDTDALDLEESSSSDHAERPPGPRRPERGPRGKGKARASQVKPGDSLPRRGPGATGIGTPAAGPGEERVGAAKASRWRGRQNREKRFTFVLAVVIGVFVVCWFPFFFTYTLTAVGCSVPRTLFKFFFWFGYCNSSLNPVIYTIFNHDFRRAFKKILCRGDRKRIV
Description: To evaluate in radioligand binding assays the activity of compounds of the invention, human recombinant adrenergic α2A receptor expressed in insect Sf9 cells (Uhlen, S. et al, J. Pharmacol. Exp. Ther. 271:1558, 1994) in a modified Tris-HCl buffer (50 mM Tris-HCl, pH 7.4, 12.5 mM MgCl2, 2 mM EDTA) was used. Compounds of invention were incubated with 1 nM [^3H]MK-912 for 60 min at 25° C. MK912 was (2S-trans)-1,3,4,5′,6,6′,7,12b-octahydro-1′,3′-dimethyl-spiro[2H-benzofuro[2,3-a]quinolizine-2,4′(1′H)-pyrimidin]-2′(3′H)-one hydrochloride Non-specific binding was estimated in the presence of 10 μM WB-4101 (2-(2,6-Dimethoxyphenoxyethyl)aminomethyl-1,4-benzodioxane hydrochloride). Receptor proteins were filtered and washed, the filters were then counted to determine [^3H]MK-912 specifically bound. Compounds were screened at 1 μM or lower, using 1% DMSO as vehicle. Compounds of the invention were tested in this biochemical assay and percent inhibition of specific binding was determined. Biochemical assay results are presented as the percent inhibition of specific binding in Tables B1A-B1D.

[3] = target: T3, human recombinant adrenergic α2B receptor (Homo sapiens, UniProt P18089); experiment: Adrenergic α2B radioligand binding assay ([3H]Rauwolscine); conditions: for inhibition at 1 µM: 1 μM compound; for inhibition at 1 µM / inhibition at 0.1 µM: read-out: Percentage inhibition of ligand binding, Adrenergic α2B; for Percentage inhibition of ligand binding, Adrenergic α2B / inhibition at 0.1 µM: 0.1 μM compound; for Percentage inhibition of ligand binding, Adrenergic α2B: 0.1 µM
T3 construct: expressed in transfected cells; host or cells: CHO-K1 cells
T3 sequence (P18089 1-450): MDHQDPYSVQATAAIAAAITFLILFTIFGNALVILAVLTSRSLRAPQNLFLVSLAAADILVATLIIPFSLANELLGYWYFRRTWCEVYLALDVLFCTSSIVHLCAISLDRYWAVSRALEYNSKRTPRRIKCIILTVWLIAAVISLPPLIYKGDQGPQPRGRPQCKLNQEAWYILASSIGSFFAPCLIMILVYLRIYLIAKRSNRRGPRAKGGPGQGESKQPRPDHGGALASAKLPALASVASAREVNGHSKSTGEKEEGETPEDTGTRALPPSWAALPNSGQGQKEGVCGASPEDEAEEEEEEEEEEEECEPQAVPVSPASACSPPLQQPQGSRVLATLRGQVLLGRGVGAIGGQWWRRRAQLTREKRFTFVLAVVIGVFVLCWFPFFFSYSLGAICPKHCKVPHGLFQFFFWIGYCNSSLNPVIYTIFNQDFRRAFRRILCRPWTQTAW
Description: To evaluate in radioligand binding assays the activity of compounds of the invention, human recombinant adrenergic α2B receptor expressed in Chinese hamster ovary (CHO) K1 cells (Uhlen, S. et al, Eur. J. Pharmacol. 343(1):93, 1998) in a modified Tris-HCl buffer (50 mM Tris-HCl, pH 7.4, 12.5 mM MgCl2, 1 mM EDTA, 0.2% BSA) was used. Compounds of the invention were incubated with 2.5 nM [3H]Rauwolscine for 60 min at 25° C. Non-specific binding was estimated in the presence of 10 μM Prazosin. Receptor proteins were filtered and washed, the filters were then counted to determine [3H]Rauwolscine specifically bound. Compounds were screened at 1 μM or lower, using 1% DMSO as vehicle. Compounds of the invention were tested in this biochemical assay and percent inhibition of specific binding was determined. Biochemical assay results are presented as the percent inhibition of specific binding in Tables B1A-B1D.

[4] = target: T4, rat adrenergic α1B receptor obtained from Wistar Rat liver (Rattus norvegicus, UniProt P15823); experiment: Adrenergic α1B radioligand binding assay ([3H]Prazosin); conditions: 0.1 μM compound; 0.1 µM
T4 construct: rat adrenergic α1B receptor obtained from Wistar Rat liver; from tissue; host or cells: Wistar rat liver
T4 sequence (P15823 1-515): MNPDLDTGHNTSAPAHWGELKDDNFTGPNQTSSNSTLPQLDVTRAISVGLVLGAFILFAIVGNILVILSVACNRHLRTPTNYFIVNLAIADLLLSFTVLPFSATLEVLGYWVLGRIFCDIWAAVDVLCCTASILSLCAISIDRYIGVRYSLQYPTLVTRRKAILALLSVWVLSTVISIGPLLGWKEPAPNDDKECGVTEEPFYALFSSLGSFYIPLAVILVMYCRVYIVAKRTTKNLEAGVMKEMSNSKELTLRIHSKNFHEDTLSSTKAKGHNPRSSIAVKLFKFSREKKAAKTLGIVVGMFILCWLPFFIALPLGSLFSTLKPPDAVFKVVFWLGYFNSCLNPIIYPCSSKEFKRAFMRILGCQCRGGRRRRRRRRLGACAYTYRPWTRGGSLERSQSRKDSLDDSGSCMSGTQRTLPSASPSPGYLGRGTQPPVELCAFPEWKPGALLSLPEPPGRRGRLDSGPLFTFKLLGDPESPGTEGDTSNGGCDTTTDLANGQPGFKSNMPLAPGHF
Description: To evaluate in radioligand binding assays the activity of compounds of the invention, rat adrenergic α1B receptor obtained from Wistar Rat liver (Garcia-S'ainz, J. et al, Biochem. Biophys. Res. Commun. 186:760, 1992; Michel, A. et al, Br. J. Pharmacol. 98:883, 1989) in a modified Tris-HCl buffer (50 mM Tris-HCl buffer, pH 7.4, 0.5 mM EDTA) was used. Compounds of the invention were incubated with 0.25 nM [^3H]Prazosin for 60 min at 25° C. Non-specific binding was estimated in the presence of 10 μM phentolamine. Receptor proteins were filtered and washed, the filters were then counted to determine [^3H]Prazosin specifically bound. Compounds were screened at 1 μM or lower, using 1% DMSO as vehicle. Compounds of the invention were tested in this biochemical assay and percent inhibition of specific binding was determined. Biochemical assay results are presented as the percent inhibition of specific binding in Tables B1A-B1D.

[5] = read-out: Percentage inhibition of ligand binding, Adrenergic α1D

SMILES: Cc1ccc2c(c1)c1c3n2CC(c2ccc(F)cc2)CCC3(C)CN(C)C1 (centres unmarked) [D7]
viability at 0.01 µM (SH-SY5Y cells): 72.1%

inhibition at 1 µM [1, 5]: 24%
inhibition at 1 µM [2]: 89%
inhibition at 1 µM [3]: 74%
SMILES: Cc1cc2c3c(c1)c1c(n3CC2c2ccc(F)cc2)CCN(C)C1 (centres unmarked) [B2]

inhibition at 0.1 µM ([1]; 0.1 μM compound, read-out: Percentage inhibition of ligand binding, Adrenergic α1D): 1%
Percentage inhibition of ligand binding, Adrenergic α2A [2]: 13%
Percentage inhibition of ligand binding, Adrenergic α1B [4]: 2%
Percentage inhibition of ligand binding, Adrenergic α2B [3]: 7%
SMILES: Cc1cc2c3c(c1)c1c(n3CC(C)(c3ccc(C)nc3)OC2C)CCN(C)C1 (centres unmarked) [B161]

Percentage inhibition of ligand binding, Adrenergic α1D ([1]; 0.1 μM compound, 0.1 µM): 2%
Percentage inhibition of ligand binding, Adrenergic α2A [2]: 6%
Percentage inhibition of ligand binding, Adrenergic α1B [4]: 12%
Percentage inhibition of ligand binding, Adrenergic α2B [3]: 16%
SMILES: Cc1cc2c3c(c1)c1c(n3CC(C)(c3ccc(C)nc3)OC2C)CCN(C)C1 (centres unmarked) [B164]

inhibition at 0.1 µM [3]: 14%
SMILES: Cc1ccc(C2Cn3c4c(c5cccc2c53)CN(C)CC4)cn1 (centres unmarked) [B210]

inhibition at 1 µM [1, 5]: 38%
inhibition at 1 µM [2]: 89%
inhibition at 1 µM [3]: 68%
SMILES: Cc1cc2c3c(c1)c1c(n3CC(c3ccc(F)cc3)C2)CCN(C)C1 (centres unmarked) [B3]

inhibition at 0.1 µM [3]: 82%
SMILES: Cc1cc2c(-c3ccccc3)cn3c4c(c(c1)c23)CN(C)CC4 [B211]

inhibition at 1 µM [1, 5]: 28%
inhibition at 1 µM [2]: 15%
inhibition at 1 µM [3]: 47%
SMILES: Cc1cc2c3c(c1)c1c(n3CC(c3ccc(C)nc3)C2)CCN(C)C1 (centres unmarked) [B1]
